For one series, the system named is MCF-7 cells. As to the kind of experiment: Combination index / drug interaction (CompuSyn, Chou-Talalay), MCF-7. Format: cell-based, human. The method, then:
IC50 values were calculated using GraphPad Prism software.
According to the theory of T. C.

Another series relates to U-87 μMG cells. The experiment in a line: MTT cytotoxicity assay, U-87 μMG. The conditions noted are these: Homo sapiens, U-87 MG, read-out: U-87 μMG cell survival. On the technique in general: Formazan colour is commonly taken as a measure of viable cells.
For series [1] the following is noted: weekly doses of 20 mg/m^2; cited from earlier work.
The test system of the next series is gliomas. The conditions noted are these: cited from earlier work.
The test system of a further series is MDA-MB-231 cells. The conditions noted are these: Glibenclamide alone; inhibiting the G1-S phase progression without inducing cell death or differentiation; cited from earlier work.
[2] abbreviates: analog 100-500 μM with Doxorubicin 0.225-0.900 μM, over a wide range of dose combinations.

Molecules are shown by their SMILES.

Experimental for U-87 μMG cells: Glimepiride and its analogs were first prepared as a stock solution in DMSO, and then the drugs were dissolved fresh in culture medium enriched with Tween 80 (final concentration 0.05%).
Human cancer cells (MCF-7, A549 and U-87 μMG) and normal endothelial cells (HMEC-1) were obtained from American Type Cell Culture (Rockville, MD). The cancer cell lines (MCF-7, A549 and U-87 μMG) were cultured as monolayers in Dulbecco's modified Eagle's medium supplemented with 10% (v/v) fetal bovine serum and 1% (v/v) penicillin/streptomycin mixture (10,000 U/mL penicillin and 10 mg/mL streptomycin) in a 100% humidified atmosphere of 5% CO2 and 95% air at 37 °C. […]
The cytotoxic activity of the test compounds against cancer cell lines was tested using the standard MTT (3-(4,5-dimethylthiazol-2-yl)-2,5-diphenyltetrazolium bromide) colorimetric assay. […] Plates were gently shaken at room temperature until the formazan was completely dissolved and read at 540 nm using a microplate reader. With the XTT method, there is no dissolution step in DMSO (XTT is reduced to a highly water-soluble, orange product instead of the insoluble formazan), and the plate is read at 450 nm. […] IC50 values were calculated using GraphPad Prism software. […]
All data are expressed as mean±standard deviation (SD) and presented as a percentage of control (untreated cells) taken as 100%, n=3 (or more). […]

As to `CCCNC(=O)NS(=O)(=O)c1ccc(Cl)cc1` [Chlorpropamide, 1-(4-chlorophenyl) sulfonyl-3-propylurea], the “drug interaction with Doxorubicin” value with MCF-7 cells (setting [2]) was “strong or very strong synergy”.
Regarding `COc1cccc2c1C(=O)c1c(O)c3c(c(O)c1C2=O)C[C@@](O)(C(=O)CO)C[C@@H]3O[C@H]1C[C@H](N)[C@H](O)[C@H](C)O1` [Doxorubicin, (7S,9S)-7-[(2R,4S,5S,6S)-4-amino-5-hydroxy-6 methyloxan-2-yl]oxy-6,9,11-trihydroxy-9-(2-hydroxyacetyl)-4-methoxy-8,10-dihydro-7H tetracene-5,12-dione], in the series on U-87 μMG cells, the viability at 0.52 µM came out at 75.6%. For the same molecule, in series [1], the “incidence of congestive heart failure” value is “lower incidence of congestive heart failure”. For the same molecule, the “clinical results vs systemic administration” value in the series with gliomas (intracerebral administration, stage III or IV gliomas, Ommaya reservoir) is “Significantly better results”. In addition, in the series on gliomas (systemic administration), the “clinical efficacy in certain brain tumors, such as gliomas” value is recorded as “very limited efficacy”. Moreover, the neurotoxicity entry with gliomas (very high systemic doses) is on record as “highly neurotoxic”.
Consider `Cc1ccc(S(=O)(=O)NC(=O)NN2CCCCCC2)cc1` [Tolazamide, 1-(azepan-1-yl)-3-(4-methylphenyl) sulfonylurea], for which the “drug interaction with Doxorubicin” value in the series with MCF-7 cells (setting [2]) is “strong or very strong synergy”.
In the case of `COc1ccc(Cl)cc1C(=O)NCCc1ccc(S(=O)(=O)NC(=O)NC2CCCCC2)cc1` [Glyburide], in the series on MDA-MB-231 cells, the “effect in MDA-MB-231 cells” value is reported as “cytostatic effect”. Moreover, the “drug interaction with Doxorubicin” value in the series on MCF-7 cells (setting [2]) was “strong or very strong synergy”.
Regarding `Cc1ccc(S(=O)(=O)NC(=O)NN2CC3CCCC3C2)cc1` (stereo not drawn) [Gliclazide, 1-(3,3a,4,5,6,6a-hexahydro-1H-cyclopenta[c]pyrrol-2-yl)-3-(4-methylphenyl) sulfonylurea], the “drug interaction with Doxorubicin” value with MCF-7 cells (setting [2]) is recorded as “strong or very strong synergy”.
For `COc1ccc2c(c1)C(=O)N(CCc1ccc(S(=O)(=O)NC(=O)NC3CCCCC3)cc1)C(=O)C2(C)C` [Gliquidone], the “drug interaction with Doxorubicin” value is recorded as “additive effect or slight antagonism” in the series on MCF-7 cells (100 μM analog in combination with Doxorubicin (0.225-0.900 μM)) and “synergistic effects” with MCF-7 cells (Gliquidone with Doxorubicin, dose combinations other than 100 μM).

The record behind these values is US20260373169A1, “SYNERGISTIC COMBINATION FOR THE TREATMENT OF CANCER” (FUNDACIÓN UNIVERSITARIA SAN ANTONIO (UCAM), priority 2023, published 2026).
